Laboratory results published in patent US11284623B2 (priority 2012, dated 2022).
Read-outs that look alike come from different tables or passages of the source.

Legend:
Format in all cases: in vivo
Fusarium graminearum [1] = conditions: 5 g ai per 100 kg seeds; corn, lower roots; % of untreated control (Abbot)
Fusarium graminearum [2] = conditions: 5 g ai per 100 kg seeds; corn, mesocotyl
[3] = system: Rhizoctonia solani (AG 2); experiment: Use example FG-8: efficacy against R. solani on roots, pot trials, seed treatment; conditions: 10 g ai per 100 kg seeds
Description: (§1) Triticonazole was applied as commercial seed treatment formulation PREMIS 25 FS (25 g/L a.i., BASF SE, Ludwigshafen, Germany). Pyraclostrobin was applied as commercial seed treatment formulation STAMINA (200 g/L a.i., BASF SE, Ludwigshafen, Germany).
(§2) In 4 pot tests in the greenhouse in Limburgerhof, Bacillus subtilis MBI600, as SC formulation of spores with CFU of about 4×10^11 per ml, was tested in the crops corn and rape seed against different pathogens (Fusarium, Rhizoctonia, Scleroftinia) as solo product and in combination with triticonazole or pyraclostrobin. […]
(§3) The efficacy (E) was calculated using the Abbot's formula: E=(1−α/β)·100 • α corresponds to the fungicidal infection of the treated plants in % and • β corresponds to the fungicidal infection of the untreated (control) plants in %
(§4) The expected efficacies of active compound combinations were determined using Colby's formula (Colby, S. R. “Calculating synergistic and antagonistic responses of herbicide combinations”, Weeds 15, pp. 20-22, 1967) and compared with the observed efficacies. […]
(§5) For the assessment, the roots were washed out to evaluate the disease symptoms on the roots. […] In corn in addition the disease symptoms on the first leaf were evaluated according to a 2 class evaluation. […]

[4] = system: Rhizoctonia solani (AG 2); experiment: Use example FG-8: root mass affected by R. solani, pot trials, seed treatment; conditions: 10 g ai per 100 kg seeds; corn infected with R. solani
Description: as §1
as §2, with “pyraclostrobin. The application of the different products was done as seed treatment and the seeds were treated in the BASF Seed Solutions Technology Center (SSTC) Limburgerhof using a batch lab treater.” for “pyraclostrobin.”
as §4
For the assessment, the roots were washed out to evaluate the disease symptoms on the roots. […] In corn in addition the disease symptoms on the first leaf were evaluated according to a 2 class evaluation. The figures from the class evaluation were converted into efficacies in % of the untreated control and the efficacy (E) was calculated as follows using Abbot's formula.

[5] = system: Rhizoctonia solani (AG 2); experiment: Use example FG-8: efficacy against R. solani assessed on first leaf, pot trials, seed treatment; conditions: 10 g ai per 100 kg seeds, corn
Description: as §1, §2, §3, §4, §5

| SMILES | Observed efficacy (Fusarium graminearum [1]) [%] | Observed efficacy (Fusarium graminearum [2]) [%] | Observed efficacy (%) [3] [%] | Root mass in % of uninfected control [4] [%] | Observed efficacy (%) [5] [%] |
| --- | --- | --- | --- | --- | --- |
| CC1(C)CCC(=Cc2ccc(Cl)cc2)C1(O)Cn1cncn1 (centres unmarked) [Triticonazole] | 39.8 | 60 |  |  |  |
| COC(=O)N(OC)c1ccccc1COc1ccn(-c2ccc(Cl)cc2)n1 [Pyraclostrobin] |  |  | 28.7 | 23.3 | 1.9 |
